According to patent US12441725B2, “ISO-citrate dehydrogenase (IDH) inhibitor” (ZHEJIANG METON PHARMACEUTICAL CO., LTD, priority 2019, dated 2025):
pIC50: −log10 of the molar value.

Key:
[1] = molecular target: T1, IDH1 R132H (Homo sapiens, UniProt O75874, R132H); test: Biochemical assay for IDH inhibition (NADPH fluorescence), mutant IDH1 R132H; settings: 50 nM IDH1-R132H, 1 hour pre-incubation, in triplet
T1 construct: 6xHis
In short: (§1)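 The read-out was the linear-phase loss of NADPH fluorescence (340/460 nm) over 15 min, background-subtracted and normalized to DMSO wells, giving triplicate IC50 values. Beforehand, R132H (50 nM) or R132C (25 nM) was exposed to compound for 1 h at room temperature with 1.33 mM α-KG at pH 7.5, and the reaction was triggered by adding an 80 μM NADPH solution.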

[2] = molecular target: T2, IDH (endogenous IDH1 R132C) in HT1080 cell (Homo sapiens, UniProt O75874, R132C); test: Cell-based assay for IDH inhibition (decrease of D-2-HG) in HT1080 cells; settings: human fibrosarcoma cell line HT1080, 16 hours treatment, D-2-HG by LC-MS, in triplet
T2 construct: which harbor endogenous heterozygous IDH1 R132C and R132H mutation respectively and accumulate D-2-HG
In short: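 LC-MS/MS quantification of D-2-HG, normalized to glutamate, follows a 16 h compound exposure of IDH1 R132C HT1080 cells in DMEM with 10% FBS. Extraction uses pre-chilled 40% methanol/40% acetonitrile in water. Triplicate determinations; IC50 from D-2-HG levels relative to DMSO-treated cells.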

[3] = molecular target: T3, IDH1 R132C (Homo sapiens, UniProt O75874, R132C); test: Biochemical assay for IDH inhibition (NADPH fluorescence), mutant IDH1 R132C; settings: 25 nM IDH1-R132C, 1 hour pre-incubation, in triplet
T3 construct: 6xHis
In short: as §1

T1 sequence (O75874 whole entry R132H): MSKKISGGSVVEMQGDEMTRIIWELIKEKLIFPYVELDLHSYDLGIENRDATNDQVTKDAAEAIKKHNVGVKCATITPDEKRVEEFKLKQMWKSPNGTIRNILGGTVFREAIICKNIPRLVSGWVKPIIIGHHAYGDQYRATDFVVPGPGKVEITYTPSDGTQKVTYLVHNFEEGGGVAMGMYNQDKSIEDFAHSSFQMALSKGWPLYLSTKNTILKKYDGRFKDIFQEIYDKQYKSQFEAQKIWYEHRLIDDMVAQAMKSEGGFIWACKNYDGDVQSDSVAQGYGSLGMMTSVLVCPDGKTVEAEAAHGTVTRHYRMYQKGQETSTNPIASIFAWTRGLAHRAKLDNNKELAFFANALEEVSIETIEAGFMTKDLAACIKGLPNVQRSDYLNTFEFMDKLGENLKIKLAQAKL
T2 sequence (O75874 2-414 R132C): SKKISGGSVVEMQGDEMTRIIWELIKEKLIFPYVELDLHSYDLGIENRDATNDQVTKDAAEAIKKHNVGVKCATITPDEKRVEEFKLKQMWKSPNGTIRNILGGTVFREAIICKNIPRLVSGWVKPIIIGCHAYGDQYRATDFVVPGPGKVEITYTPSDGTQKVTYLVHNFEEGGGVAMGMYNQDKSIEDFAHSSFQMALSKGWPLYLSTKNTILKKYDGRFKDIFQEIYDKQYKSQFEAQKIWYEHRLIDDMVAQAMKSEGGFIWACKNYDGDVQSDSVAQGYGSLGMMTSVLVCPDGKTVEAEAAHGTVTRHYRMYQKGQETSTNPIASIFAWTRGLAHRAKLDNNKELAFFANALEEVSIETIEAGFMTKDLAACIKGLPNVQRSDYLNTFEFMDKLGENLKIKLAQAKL
T3 sequence (O75874 whole entry R132C): as the sequence (O75874 whole entry R132H) above, with H132C counted along it

Row | pIC50 [1] | pIC50 [2] | pIC50 [3] | Structure (SMILES)
1 | 6.30 to 7.00 | 6.30 to 7.00 | 6.00 to 6.30 | CCN1Cc2c(ccnc2N[C@@H](C)c2cc(F)c(-c3ccnc(CC4CC4)c3)cc2F)C1=O [Compound 91, (S)-4-((1-(4-(2-(cyclopropylmethyl)pyridin-4-yl)-2,5-difluorophenyl)ethyl)amino)-2-ethyl-2,3-dihydro-1H-pyrrolo[3,4-c]pyridin-1-one]
2 | > 7.00 | > 7.00 | > 7.00 | CCN1Cc2c(ccnc2N[C@@H](C)c2cc(F)c(-c3ccnc(C(C)(C)C)c3)cc2F)C1=O [Compound 87, (S)-4-((1-(4-(2-(tert-butyl)pyridin-4-yl)-2,5-difluorophenyl)ethyl)amino)-2-ethyl-2,3-dihydro-1H-pyrrolo[3,4-c]pyridin-1-one]
3 | < 6.00 | 6.30 to 7.00 | < 6.00 | CCN1Cc2c(N[C@@H](C)c3ccc(-c4ccc(F)c(C)c4)c(F)c3)ncnc2C1=O [Compound 67, (S)-4-((1-(2,4′-difluoro-3′-methyl-[1,1′-biphenyl]-4-yl)ethyl)amino)-6-ethyl-5H-pyrrolo[3,4-d]pyrimidin-7(6H)-one]
4 | < 6.00 | < 6.00 | < 6.00 | CCN1Cc2c(ccnc2N[C@@H](C)c2cc(F)c(-c3ccnc(C(C)(C)O)c3)cc2F)C1=O [Compound 103, (S)-4-((1-(2,5-difluoro-4-(2-(2-hydroxypropan-2-yl)pyridin-4-yl)phenyl)ethyl)amino)-2-ethyl-2,3-dihydro-1H-pyrrolo[3,4-c]pyridin-1-one]
5 | > 7.00 | 6.30 to 7.00 | 6.30 to 7.00 | CCN1Cc2c(ccnc2N[C@@H](C)c2cc(F)c(-c3ccnc(C4CCCC4)c3)cc2F)C1=O [Compound 101, (S)-4-((1-(4-(2-cyclopentylpyridin-4-yl)-2,5-difluorophenyl)ethyl)amino)-2-ethyl-2,3-dihydro-1H-pyrrolo[3,4-c]pyridin-1-one]
6 | < 6.00 | < 6.00 | < 6.00 | CCN1Cc2c(ccnc2N[C@@H](C)c2ccc(-c3ccccc3)c(F)c2)C1=O [Compound 80, (S)-2-ethyl-4-((1-(2-fluoro-[1,1′-biphenyl]-4-yl)ethyl)amino)-2,3-dihydro-1H-pyrrolo[3,4-c]pyridin-1-one]
7 | > 7.00 | 6.30 to 7.00 | 6.30 to 7.00 | CCN1Cc2c(ccnc2N[C@@H](C)c2cc(F)c(-c3ccnc(C(C)(C)F)c3)cc2F)C1=O [Compound 102, 4-[[(1S)-1-[2,5-difluoro-4-[2-(1-fluoro-1-methyl-ethyl)-4-pyridyl]phenyl]ethyl]amino]-2-ethyl-3H-pyrrolo[3,4-c]pyridin-1-one]
8 | > 7.00 | 6.30 to 7.00 | > 7.00 | CCN1Cc2c(ccnc2N[C@@H](C)c2ccc(-c3ccnc(C(C)(C)C)c3)c(F)c2)C1=O [Compound 71, (S)-4-((1-(4-(2-(tert-butyl)pyridin-4-yl)-3-fluorophenyl)ethyl)amino)-2-ethyl-2,3-dihydro-1H-pyrrolo[3,4-c]pyridin-1-one]
9 | > 7.00 | > 7.00 | > 7.00 | CCN1Cc2c(ccnc2N[C@@H](C)c2cc(F)c(O[C@H]3C[C@@H](C)CC(C)(C)C3)cc2F)C1=O [Compound 24, 4-(((S)-1-(2,5-difluoro-4-(((1S,5S)-3,3,5-trimethylcyclohexyl)oxy)phenyl)ethyl)amino)-2-ethyl-2,3-dihydro-1H-pyrrolo[3,4-c]pyridin-1-one]
10 | 6.30 to 7.00 | 6.30 to 7.00 | 6.30 to 7.00 | CCN1Cc2c(ccnc2N[C@@H](C)c2cc(F)c(-c3cn(C(C)(C)C)cn3)cc2F)C1=O [Compound 160, (S)-4-((1-(4-(1-(tert-butyl)-1H-imidazol-4-yl)-2,5-difluorophenyl)ethyl)amino)-2-ethyl-2,3-dihydro-1H-pyrrolo[3,4-c]pyridin-1-one]
11 | 6.30 to 7.00 | 6.30 to 7.00 | 6.00 to 6.30 | CCN1Cc2c(ccnc2N[C@@H](C)c2cc(F)c(-c3ccnc(C(C)(C)C#N)c3)cc2F)C1=O [Compound 154, (S)-2-(4-(4-(1-((2-ethyl-1-oxo-2,3-dihydro-1H-pyrrolo[3,4-c]pyridin-4-yl)amino)ethyl)-2,5-difluorophenyl)pyridin-2-yl)-2-methylpropanenitrile]
12 | < 6.00 | < 6.00 | < 6.00 | CCN1Cc2c(ccnc2N[C@@H](C)c2ccc(-c3ccnc(C(=O)C4CC4)c3)c(F)c2)C1=O [Compound 86, (S)-4-((1-(4-(2-(cyclopropanecarbonyl)pyridin-4-yl)-3-fluorophenyl)ethyl)amino)-2-ethyl-2,3-dihydro-1H-pyrrolo[3,4-c]pyridin-1-one]
13 | > 7.00 | > 7.00 | > 7.00 | CCN1Cc2c(ccnc2N[C@@H](C)c2cc(F)c(-c3ccnc(C(C)(C)C(F)(F)F)c3)cc2F)C1=O [Compound 105, (S)-4-((1-(2,5-difluoro-4-(2-(1,1,1-trifluoro-2-methylpropan-2-yl)pyridin-4-yl)phenyl)ethyl)amino)-2-ethyl-2,3-dihydro-1H-pyrrolo[3,4-c]pyridin-1-one]
14 | > 7.00 | > 7.00 | 6.30 to 7.00 | CCN1Cc2c(ccnc2N[C@@H](C)c2cc(F)c(-c3cc(C(C)(C)F)ncc3CF)cc2F)C1=O [Compound 139, (S)-4-((1-(2,5-difluoro-4-(5-(fluoromethyl)-2-(2-fluoropropan-2-yl)pyridin-4-yl)phenyl)ethyl)amino)-2-ethyl-2,3-dihydro-1H-pyrrolo[3,4-c]pyridin-1-one]
15 | 6.30 to 7.00 | < 6.00 | < 6.00 | C[C@H](Nc1nccc2c1CN(CC(F)CF)C2=O)c1ccc(-c2ccnc(C(C)(C)C)c2)c(F)c1 (stereo partly drawn) [Compound 39, 4-(((S)-1-(4-(2-(tert-butyl)pyridin-4-yl)-3-fluorophenyl)ethyl)amino)-2-(2,3-difluoropropyl)-2,3-dihydro-1H-pyrrolo[3,4-c]pyridin-1-one]
16 | > 7.00 | 6.30 to 7.00 | 6.30 to 7.00 | CCN1Cc2c(ccnc2N[C@@H](C)c2cc(F)c(-c3ccnc(C4CCC4)c3)cc2F)C1=O [Compound 89, (S)-4-((1-(4-(2-cyclobutylpyridin-4-yl)-2,5-difluorophenyl)ethyl)amino)-2-ethyl-2,3-dihydro-1H-pyrrolo[3,4-c]pyridin-1-one]
17 | > 7.00 | > 7.00 | > 7.00 | CCN1Cc2c(ccnc2N[C@@H](C)c2cc(F)c(-c3cc(C(C)(C)F)c(OC)cn3)cc2F)C1=O [Compound 135, (S)-4-((1-(2,5-difluoro-4-(4-(2-fluoropropan-2-yl)-5-methoxypyridin-2-yl)phenyl)ethyl)amino)-2-ethyl-2,3-dihydro-1H-pyrrolo[3,4-c]pyridin-1-one]
18 | < 6.00 | < 6.00 | < 6.00 | CCN1Cc2c(ccnc2N[C@@H](C)c2ncc(-c3ccc(OC)cc3)cn2)C1=O [Compound 50, (S)-2-ethyl-4-((1-(5-(4-methoxyphenyl)pyrimidin-2-yl)ethyl)amino)-2,3-dihydro-1H-pyrrolo[3,4-c]pyridin-1-one]
19 | > 7.00 | > 7.00 | > 7.00 | CCN1Cc2c(ccnc2N[C@@H](C)c2cc(F)c(-c3cc(C(C)(C)F)ccn3)cc2F)C1=O [Compound 112, (S)-4-((1-(2,5-difluoro-4-(4-(2-fluoropropan-2-yl)pyridin-2-yl)phenyl)ethyl)amino)-2-ethyl-2,3-dihydro-1H-pyrrolo[3,4-c]pyridin-1-one]
20 | < 6.00 | 6.00 to 6.30 | < 6.00 | CCN1Cc2c(ccnc2N[C@@H](C)c2cc(F)c(-c3ccnc(-c4cccnc4)c3)cc2F)C1=O [Compound 99, (S)-4-((1-(4-([2,3′-bipyridin]-4-yl)-2,5-difluorophenyl)ethyl)amino)-2-ethyl-2,3-dihydro-1H-pyrrolo[3,4-c]pyridin-1-one]
21 | 6.30 to 7.00 | 6.30 to 7.00 | 6.00 to 6.30 | CCN1Cc2c(ccnc2N[C@@H](C)c2cc(F)c(-c3cc(C(C)(C)F)cc(O)n3)cc2F)C1=O [Compound 156, (S)-4-((1-(2,5-difluoro-4-(4-(2-fluoropropan-2-yl)-6-hydroxypyridin-2-yl)phenyl)ethyl)amino)-2-ethyl-2,3-dihydro-1H-pyrrolo[3,4-c]pyridin-1-one]
22 | < 6.00 | < 6.00 | < 6.00 | CCN1Cc2c(ccnc2N[C@@H](C)c2cc(F)c(-c3cc(C(F)(F)F)ncc3O)cc2F)C1=O [Compound 144, (S)-4-((1-(2,5-difluoro-4-(5-hydroxy-2-(trifluoromethyl)pyridin-4-yl)phenyl)ethyl)amino)-2-ethyl-2,3-dihydro-1H-pyrrolo[3,4-c]pyridin-1-one]
23 | < 6.00 | < 6.00 | < 6.00 | CCN1Cc2c(ccnc2N[C@@H](C)c2ccc(Oc3ccnc(C(F)(F)F)c3)c(F)c2)C1=O [Compound 26, (S)-2-ethyl-4-((1-(3-fluoro-4-((2-(trifluoromethyl)pyridin-4-yl)oxy)phenyl)ethyl)amino)-2,3-dihydro-1H-pyrrolo[3,4-c]pyridin-1-one]
24 | 6.30 to 7.00 | 6.00 to 6.30 | 6.00 to 6.30 | CCN1Cc2c(ccnc2N[C@@H](C)c2cc(F)c(-c3cc(C(F)(F)F)c(O)cn3)cc2F)C1=O [Compound 164, (S)-4-((1-(2,5-difluoro-4-(5-hydroxy-4-(trifluoromethyl)pyridin-2-yl)phenyl)ethyl)amino)-2-ethyl-2,3-dihydro-1H-pyrrolo[3,4-c]pyridin-1-one]
